{"source": "patent US20030096704A1", "about": "“Novel use of herbicides” (priority 2000, published 2003)", "key": {"[1]": {"test_system": "Rice ATCC 97523 (ALS-inhibitor-resistant rice variety SPCW-1)", "experiment": "Post-emergence herbicidal action on rice (paddy system): phytotoxicity on ALS-inhibitor-resistant rice", "format": "in vivo, Oryza sativa", "details": "8 g/ha, evaluated after about 21 days, 0% no action, 100% plant completely died", "experimental": "(§1) Post-emergence Herbicidal Action on Rice:\n(§2) Weeds are sown and raised in soil saturated with water in plastics troughs. The rice plants are sown and grown separately from the weeds and after 10 days transplanted into the plastics troughs containing the weeds. The test compounds are then applied to the plants in the form of an aqueous suspension. One day after application, the water level is raised by 3 cm (paddy system).\n(§3) The test plants are then grown on in a greenhouse under optimum conditions. […] For comparison with the prior art, the compound sulfometuron-methyl (known from The Pesticide Manual, 10th ed., the British Crop Protection Council, page 931) is tested. Sulfometuron-methyl belongs to the same class of ALS-inhibitors as the compound of formula I. The compound of formula I and sulfometuron-methyl are tested at a rate of application of 8 g/ha.\nThe ALS-inhibitor-resistant rice variety used is Oryza sativa, Linnaeus name: SPCW-1, deposited under the number ATCC 97523, depositor: Louisiana State Univ."}, "[2]": {"test_system": "Rice “Lemont” (conventional rice variety)", "experiment": "Post-emergence herbicidal action on rice (paddy system): phytotoxicity on conventional rice", "format": "in vivo, Oryza sativa", "details": "8 g/ha, evaluated after about 21 days, 0% no action, 100% plant completely died", "experimental": "as §1, §2, §3\nThe variety “Lemont” is used as conventional rice variety."}, "[3]": {"test_system": "Cyperus serotinus (CYPSE)", "experiment": "Post-emergence herbicidal action on rice (paddy system): weed control", "format": "in vivo", "details": "8 g/ha; leaf stage 3, height 11 cm at application; about 21 days", "experimental": "as §1, §2, §3"}, "[4]": {"test_system": "Monochoria vaginalis (MOOVA)", "experiment": "Post-emergence herbicidal action on rice (paddy system): weed control", "format": "in vivo", "details": "8 g/ha; leaf stage 2, height 1 cm at application; about 21 days", "experimental": "as §1, §2, §3"}, "[5]": {"test_system": "Echinochloa crus galli (ECHCG)", "experiment": "Post-emergence herbicidal action on rice (paddy system): weed control", "format": "in vivo", "details": "8 g/ha, about 21 days", "experimental": "as §1, §2, §3"}}, "data": [{"smiles": "COC(=O)c1ccccc1S(=O)(=O)NC(=O)Nc1nc(C)cc(C)n1", "note": "[sulfometuron-methyl]", "values": [{"measurement": "% Phytotoxicity Rice ATCC 97523", "setting": "[1]", "result": 95, "unit": "%"}, {"measurement": "% Phytotoxicity Rice “Lemont”", "setting": "[2]", "result": 100, "unit": "%"}, {"measurement": "% Weed control CYPSE", "setting": "[3]", "result": 95, "unit": "%"}, {"measurement": "% Weed control MOOVA", "setting": "[4]", "result": 100, "unit": "%"}, {"measurement": "% Weed control ECHCG 1", "setting": "[5]; Echinochloa crus galli post 1.0 leaf (leaf stage 1.5, height 6 cm at application)", "result": 100, "unit": "%"}, {"measurement": "% Weed control ECHCG 3", "setting": "[5]; Echinochloa crus galli post 3.0 leaf (leaf stage 3, height 25 cm at application)", "result": 98, "unit": "%"}]}]}
